These results are taken from ChEMBL document CHEMBL4028864 (J Med Chem, 2017).

A value given as a limit tells only on which side of the number the result lay.

The subject of one assay is KMS-12-BM. Nature of the assay: cells. The format is functional, cell-based. The conditions noted are these: Homo sapiens, 48 h.
For a further assay, the system named is MOLM-14. Nature of the assay: cells. The format is functional, cell-based. The conditions noted are these: Homo sapiens, MOLM-14, 48 h.
Assay [1] in a line: cells. The format is functional, cell-based. The conditions noted are these: Homo sapiens, NKYS, 48 h.
Assay [2] is described as follows: cells. The format is ADME, cell-based. The conditions noted are these: Homo sapiens, AC10, 24 h.
Assay [3] addresses T1, Protein deacetylase HDAC6 (Homo sapiens, UniProt Q9UBN7).
T1 sequence (Q9UBN7 whole entry): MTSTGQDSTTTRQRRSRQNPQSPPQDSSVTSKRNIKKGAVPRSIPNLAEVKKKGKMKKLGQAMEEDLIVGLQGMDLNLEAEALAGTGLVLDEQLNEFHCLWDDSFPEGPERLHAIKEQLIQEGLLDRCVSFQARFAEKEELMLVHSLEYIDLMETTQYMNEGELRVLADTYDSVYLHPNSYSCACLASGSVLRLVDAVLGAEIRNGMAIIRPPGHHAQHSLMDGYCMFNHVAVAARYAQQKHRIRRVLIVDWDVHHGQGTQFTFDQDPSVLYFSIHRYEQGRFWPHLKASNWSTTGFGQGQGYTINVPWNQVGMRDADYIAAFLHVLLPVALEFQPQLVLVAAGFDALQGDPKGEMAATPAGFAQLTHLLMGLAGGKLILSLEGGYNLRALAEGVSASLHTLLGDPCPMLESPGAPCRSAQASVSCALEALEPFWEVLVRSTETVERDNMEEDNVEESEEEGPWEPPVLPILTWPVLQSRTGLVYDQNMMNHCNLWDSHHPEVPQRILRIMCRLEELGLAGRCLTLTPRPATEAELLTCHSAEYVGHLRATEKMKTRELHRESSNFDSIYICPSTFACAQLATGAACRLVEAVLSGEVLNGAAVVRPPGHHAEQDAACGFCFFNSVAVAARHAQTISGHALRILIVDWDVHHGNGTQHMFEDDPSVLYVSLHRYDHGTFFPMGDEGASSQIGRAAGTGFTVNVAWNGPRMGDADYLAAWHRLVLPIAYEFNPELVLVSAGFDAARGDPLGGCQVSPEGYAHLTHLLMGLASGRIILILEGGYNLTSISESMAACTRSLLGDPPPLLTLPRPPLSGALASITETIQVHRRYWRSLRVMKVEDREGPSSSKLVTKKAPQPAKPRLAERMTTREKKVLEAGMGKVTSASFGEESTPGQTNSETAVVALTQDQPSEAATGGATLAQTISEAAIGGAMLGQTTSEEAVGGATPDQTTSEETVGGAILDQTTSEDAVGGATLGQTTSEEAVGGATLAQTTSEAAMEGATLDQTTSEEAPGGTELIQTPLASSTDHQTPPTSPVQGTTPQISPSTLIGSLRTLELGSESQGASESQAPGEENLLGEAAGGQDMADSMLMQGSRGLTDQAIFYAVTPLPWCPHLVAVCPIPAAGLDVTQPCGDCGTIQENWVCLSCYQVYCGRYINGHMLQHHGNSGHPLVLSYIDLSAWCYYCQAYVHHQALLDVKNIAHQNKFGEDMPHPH
Nature of the assay: Inhibition of N-terminal GST tagged human HDAC6 (1 to 1215 residues) expressed in baculovirus infected insect cells using RHKKAc as substrate in presence of ATP.

The target in assay [4] is T2, Tyrosine-protein kinase JAK2 (Homo sapiens, UniProt O60674). The experiment in a line: Inhibition of human JAK2 using poly[Glu:Tyr] as substrate in presence of [gamma-33P]-ATP.
The target in assay [5] is T2, Tyrosine-protein kinase JAK2. Nature of the assay: Binding affinity to N-terminal His tagged human recombinant JAK2 (1014 to 1132 residues) expressed in Escherichia coli after 60 to 90 mins by LC/MS analysis. The conditions noted are these: read-out: Kd(app).
For a further assay, the system named is MDA-MB-231. The experiment in a line: cells. It is filed as functional, cell-based. The conditions noted are these: Homo sapiens, MDA-MB-231, 72 h.
The next assay relates to MCF7. Nature of the assay: cells. The conditions noted are these: Homo sapiens, MCF7, 72 h. It is filed as functional, cell-based.
The test system of the next assay is HCT-116. The experiment in a line: Antiproliferative activity against human HCT116 cells after 72 hrs by MTT assay. It is filed as functional, cell-based. The conditions noted are these: HCT-116, 72 h. Background: Tetrazolium dyes change colour on reduction, which living cells bring about.
A further assay deals with PC-3. The experiment in a line: cells. The format is functional, cell-based. The conditions noted are these: Homo sapiens, PC-3, 72 h.
A further assay concerns HL-60. Nature of the assay: Antiproliferative activity against human HL60 cells. It is filed as functional, cell-based.
In the next assay the test system is HEL 92.1.7. Nature of the assay: cells. The format is functional, cell-based. The conditions noted are these: Homo sapiens, HEL 92.1.7, 36 h.
The test system of another assay is Jurkat. Nature of the assay: cells. The format is functional, cell-based. The conditions noted are these: Homo sapiens.
A further assay concerns the target Histone deacetylase 1 (Homo sapiens, UniProt Q13547). Nature of the assay: Inhibition of C-terminal FLAG His tagged full length human recombinant HDAC1 (1 to 482 residues) expressed in baculovirus infected sf21 cells using RHKKAc as substrate in presence of ATP.

Histone deacetylase 1, sequence (Q13547 whole entry, the tested form may be a part): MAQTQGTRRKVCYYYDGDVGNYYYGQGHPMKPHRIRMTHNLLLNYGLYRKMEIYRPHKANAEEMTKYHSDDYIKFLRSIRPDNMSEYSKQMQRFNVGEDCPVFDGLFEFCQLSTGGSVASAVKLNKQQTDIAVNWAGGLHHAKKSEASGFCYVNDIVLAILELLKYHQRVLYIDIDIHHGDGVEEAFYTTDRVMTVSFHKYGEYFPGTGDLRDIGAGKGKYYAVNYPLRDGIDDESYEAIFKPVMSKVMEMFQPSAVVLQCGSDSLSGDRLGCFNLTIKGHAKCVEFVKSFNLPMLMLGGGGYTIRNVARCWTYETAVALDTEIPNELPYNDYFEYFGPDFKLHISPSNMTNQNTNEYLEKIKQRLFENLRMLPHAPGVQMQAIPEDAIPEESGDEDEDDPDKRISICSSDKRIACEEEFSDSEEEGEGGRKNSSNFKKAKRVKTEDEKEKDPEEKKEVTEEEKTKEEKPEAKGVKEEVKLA
T2 sequence (O60674 whole entry, the tested form may be a part): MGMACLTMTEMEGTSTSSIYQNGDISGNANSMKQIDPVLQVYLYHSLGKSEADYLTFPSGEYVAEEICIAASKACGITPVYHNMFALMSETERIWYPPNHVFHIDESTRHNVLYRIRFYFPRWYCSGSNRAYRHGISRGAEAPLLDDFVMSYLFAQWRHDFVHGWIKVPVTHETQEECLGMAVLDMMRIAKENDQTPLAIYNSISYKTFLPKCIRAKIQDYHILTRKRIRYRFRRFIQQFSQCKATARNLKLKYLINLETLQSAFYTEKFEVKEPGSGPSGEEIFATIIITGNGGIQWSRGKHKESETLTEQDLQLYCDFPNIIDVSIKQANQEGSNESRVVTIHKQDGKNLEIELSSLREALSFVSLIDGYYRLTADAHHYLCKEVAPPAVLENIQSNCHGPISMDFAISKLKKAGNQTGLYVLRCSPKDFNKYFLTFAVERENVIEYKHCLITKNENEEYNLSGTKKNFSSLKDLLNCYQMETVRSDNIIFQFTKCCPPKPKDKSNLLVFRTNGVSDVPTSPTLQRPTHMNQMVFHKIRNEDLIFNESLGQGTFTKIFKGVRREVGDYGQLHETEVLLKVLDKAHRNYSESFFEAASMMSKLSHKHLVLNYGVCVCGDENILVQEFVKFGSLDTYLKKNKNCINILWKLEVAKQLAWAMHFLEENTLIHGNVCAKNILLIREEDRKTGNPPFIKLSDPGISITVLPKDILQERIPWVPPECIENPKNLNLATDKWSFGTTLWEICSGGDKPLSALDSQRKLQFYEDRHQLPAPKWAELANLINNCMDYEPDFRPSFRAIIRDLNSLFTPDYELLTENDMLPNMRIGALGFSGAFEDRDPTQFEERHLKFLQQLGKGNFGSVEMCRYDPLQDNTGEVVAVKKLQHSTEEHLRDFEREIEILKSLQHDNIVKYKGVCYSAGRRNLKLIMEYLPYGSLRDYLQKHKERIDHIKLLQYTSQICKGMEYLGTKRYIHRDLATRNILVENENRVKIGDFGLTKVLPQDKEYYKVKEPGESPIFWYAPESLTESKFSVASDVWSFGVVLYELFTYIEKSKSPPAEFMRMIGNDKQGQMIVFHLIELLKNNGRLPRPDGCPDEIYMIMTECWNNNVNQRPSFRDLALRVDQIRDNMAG

For the compound `C1=N/C2=N/c3ccc(OCCN4CCCC4)c(c3)COC/C=C/COCc3cccc(c3)C(=C1)N2` [PACRITINIB], the IC50 (commonly the point on the concentration scale where inhibition reaches its midpoint) in the assay with KMS-12-BM turned out to be 0.75 µM; in the assay on MOLM-14, 0.079 µM; in the assay “cells [1]” it was 1.6 µM; in the assay “cells [2]”, 2.02 µM.
Consider `O=C(CCCn1cc(-c2ncnc3[nH]ccc23)cn1)NO`, for which the IC50 in assay [3] was 0.604 µM; in assay [4], 3.56 µM; in the assay on MDA-MB-231, more than 100 µM; in the assay with MCF7, more than 100 µM; in the assay with HCT-116, more than 100 µM; in the assay with PC-3 it was more than 100 µM. Further, in assay [5], the Kd amounted to 5 µM.
In the assay with HCT-116, `O=C(CCCCCCC(=O)Nc1ccccc1)NO` [VORINOSTAT] showed an IC50 of 1.85 µM.
Regarding `CN1CCc2c(c3ccccc3n2Cc2ccc(C(=O)NO)cc2)C1` [TUBASTATIN A], the 50% inhibitory concentration (IC50) is 10.4 µM in the assay on MDA-MB-231; 3.7 µM in the assay on MCF7; 2 µM in the assay on HCT-116; 8.6 µM with PC-3; more than 4 µM in the assay on HL-60; more than 4 µM in the assay with HEL 92.1.7. This compound yielded a half-inhibitory concentration (IC50) in the assay on Jurkat of more than 4 µM.
Regarding `O=C(CCCCn1cc(-c2ncnc3[nH]ccc23)cn1)NO`, the half-inhibitory concentration (IC50) at Histone deacetylase 1 is 0.854 µM; in assay [3], 0.006 µM; in the assay with MDA-MB-231, 17.3 µM; in the assay on MCF7, 12.8 µM; in the assay on HCT-116, 46.2 µM; with PC-3, more than 100 µM.
Take `O=C(CCCCCCC(=O)Nc1ccc(NCCCn2cc(-c3ncnc4[nH]ccc34)cn2)cc1)NO`: the IC50 on Histone deacetylase 1 was determined as 0.11 µM; in [3], 0.00014 µM; in [4], 0.265 µM; with MDA-MB-231, 25.5 µM; in the assay with MCF7 it was 15.2 µM; with HCT-116, 19.4 µM. Also, the half-inhibitory concentration (IC50) in the assay with PC-3 is 23.9 µM; with HL-60 it was more than 10 µM; with HEL 92.1.7, more than 4 µM; in the assay with Jurkat, 4 µM. Further, the Kd in assay [5] is 1 µM.
Consider `O=C(CCCCCn1cc(-c2ncnc3[nH]ccc23)cn1)NO`, for which the IC50 at Histone deacetylase 1 was determined as 0.138 µM; in assay [3], 0.0029 µM; in the assay on MCF7, 8.16 µM; with HCT-116 it was 8.99 µM; in the assay on PC-3 it was 18.8 µM.
For the compound `O=C(CCCCCCCCCCn1cc(-c2ncnc3[nH]ccc23)cn1)NO`, the IC50 came to 3.54 µM at Histone deacetylase 1; 0.088 µM in assay [3]; 0.043 µM in assay [4]; 12.9 µM in the assay on MDA-MB-231; 13.3 µM with MCF7; 41.1 µM in the assay with HCT-116. This compound also had a half-inhibitory concentration (IC50) in the assay with PC-3 of 54.3 µM. Moreover, in assay [5], the Kd is less than 1 µM.
Regarding `O=C(CCCCCCCn1cc(-c2ncnc3[nH]ccc23)cn1)NO`, the half-maximal inhibitory concentration (IC50) on Histone deacetylase 1 came to 0.036 µM; in assay [3] it was 0.0018 µM; in assay [4], 0.481 µM; in the assay with MDA-MB-231 it was 12.9 µM; in the assay on MCF7, 12.4 µM; in the assay on HCT-116, 11.8 µM. Moreover, the half-inhibitory concentration (IC50) in the assay with PC-3 came to 12.9 µM. In assay [5], the Kd was determined as 2 µM.
`O=C(CCCCCCC(=O)Nc1ccc(CCCn2cc(-c3ncnc4[nH]ccc34)cn2)cc1)NO`: the IC50 is 0.265 µM at Histone deacetylase 1; 0.0009 µM in assay [3]; 0.865 µM in assay [4]; 70 µM in the assay with MDA-MB-231; more than 50 µM in the assay on MCF7; 23 µM in the assay with HCT-116. The same compound gave a half-inhibitory concentration (IC50) in the assay with PC-3 of more than 50 µM. Further, the Kd in [5] was determined as 2 µM.
Consider `O=C(CCCCCCC(=O)Nc1ccc(NC(=O)CCCn2cc(-c3ncnc4[nH]ccc34)cn2)cc1)NO`, for which the 50% inhibitory concentration (IC50) in [3] was 0.55 µM; in assay [4] it was 1.2 µM; in the assay on MDA-MB-231 it was more than 100 µM; in the assay with MCF7, more than 100 µM; with HCT-116, more than 100 µM; in the assay on PC-3, more than 100 µM. In addition, the Kd in [5] was found to be 2 µM.
